Test results published in patent US8415317B2, “Adjuvant compositions and methods for enhancing immune responses to polynucleotide-based vaccines” (priority 1999, dated 2013).
“Also recorded” adds a separate entry of the source.

What was measured:
[1] = test system: influenza nuclear protein (NP); parameters: species or system mice; conditions: mouse, in vivo
[2] = Tolerability of i.m. injection in the mouse model; assay type: in vivo; conditions: highest dose tested: 100 μg VR4700 plasmid+48 μg GAP-DMORIE+60 μg DPyPE per mouse
Method: All cytofectin/co-lipid formulations used in this study remained uniformly opaque for several hours after preparation at room temperature without any visible aggregation. Formulations were injected 20 min-1.5 hours after complexation.

[3] = test system: hemagglutinin (HA); parameters: species or system humans; conditions: in vivo

| SMILES | level of antibody stimulation (GMT relative to that for pDNA alone) [1] | humoral immune response, level of antibody titers from pDNA immunization [1] | discomfort or adverse reactions when injected into mouse muscle [2] | immune responses of human subjects, HA GMT antibody titer [3] |
| --- | --- | --- | --- | --- |
| CCCCCCCCCCCCCCOCC(C[N+](C)(C)CCO)OCCCCCCCCCCCCCC.[Br-] (racemic) [DMRIE, (±)-N-(2-hydroxyethyl)-N,N-dimethyl-2,3-bis(tetradecyloxy)-1-propanaminium bromide] | equally active | – | – | – |
| CCCC/C=C\CCCCCCCCOCC(C[N+](C)(C)CCCN)OCCCCCCCC/C=C\CCCC.[Br-] (racemic) [GAP-DMORIE, (±)-N-(3-aminopropyl)-N,N-dimethyl-2,3-bis(syn-9-tetradeceneyloxy)-1-propanaminium bromide] | markedly enhances antibody responses; also recorded: more active than either DMORIE or GAP-DMRIE | synergistic effect to further enhance the humoral immune response | did not appear to produce discomfort or result in any adverse reactions | induced |
| CCCCCCCCCCCCCCOCC(C[N+](C)(C)CCCN)OCCCCCCCCCCCCCC.[Br-] (racemic) [GAP-DMRIE, (±)-N-(3-aminopropyl)-N,N-dimethyl-2,3-(bis-tetradecyloxy)-1-propanaminium bromide] | no apparent advantage | – | – | – |
| CCCCCCCC/C=C\CCCCCCCCOCC(C[N+](C)(C)CCNC(=O)C(CCCNCCCN)NCCCN)OCCCCCCCC/C=C\CCCCCCCC.Cl.Cl.Cl.Cl.[Cl-] (stereo not shown) [DOSPA, 2,3-dioleyloxy-N-(2-(sperminecarboxamido)ethyl)-N,N-dimethyl-1-propanaminium pentahydrochloride] | less active than DORIE; also recorded: dramatically decreases the level of antibody titers relative to those seen for pDNA alone | – | – | – |
